# Source: patent US12077503B2, “Substituted cyclic amides and their use as herbicides” (FMC CORPORATION, priority 2015, dated 2024)
# Where two headings read alike, the source gives them in different places.
# Columns and labels:
# Format in all cases: in vivo
# [1] = test system: Galium (catchweed bedstraw, Galium aparine); assay: Test A postemergence; details: Galium, post-emergence, 240 h; for pest or weed control at 125 g/ha: 125 g ai/ha, visual injury vs untreated controls after approx. 10 d, 0 = no effect, 100 = complete control, read-out: Galium plant response rating (0 to 100 scale); for pest or weed control at 500 g/ha: 500 g ai/ha
# Method in brief: (§1)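 Each rating is a visual injury score from 0 to 100 given about 10 d after treatment, judged against untreated controls kept alongside in the greenhouse. In loam soil–sand blend, seeds got a preemergence directed soil spray, while postemergence plants were 2 to 10 cm tall at spraying.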
# Kochia (Kochia scoparia) = assay: Test A postemergence; details: Bassia scoparia, post-emergence, 240 h; for pest or weed control at 125 g/ha: 125 g ai/ha, visual injury vs untreated controls after approx. 10 d, 0 = no effect, 100 = complete control, read-out: Kochia plant response rating (0 to 100 scale); for pest or weed control at 500 g/ha: 500 g ai/ha
# Method in brief: as §1
# [2] = test system: barnyardgrass (Echinochloa crus-galli); assay: Test A postemergence; details: Echinochloa crus-galli, post-emergence, 240 h; for pest or weed control at 125 g/ha: 125 g ai/ha, visual injury vs untreated controls after approx. 10 d, 0 = no effect, 100 = complete control, read-out: Barnyardgrass plant response rating (0 to 100 scale); for pest or weed control at 500 g/ha: 500 g ai/ha
# Method in brief: as §1
# [3] = test system: blackgrass (Alopecurus myosuroides); assay: Test A postemergence; details: Alopecurus myosuroides, post-emergence, 240 h; for pest or weed control at 125 g/ha: 125 g ai/ha, visual injury vs untreated controls after approx. 10 d, 0 = no effect, 100 = complete control, read-out: Blackgrass plant response rating (0 to 100 scale); for pest or weed control at 500 g/ha: 500 g ai/ha
# Method in brief: as §1
# corn (Zea mays) = assay: Test A postemergence; details: Zea mays, post-emergence, 240 h; for plant injury at 125 g/ha: 125 g ai/ha, visual injury vs untreated controls after approx. 10 d, 0 = no effect, 100 = complete control, read-out: Corn plant response rating (0 to 100 scale); for Corn plant response rating (crop injury, 0 = no effect, 100 = complete kill) at 500 g/ha: Postemergence, visual injury, 0 to 100 scale (0 no effect, 100 complete control), approx. 10 d
# Method in brief: as §1
# [4] = test system: giant foxtail (Setaria faberii); assay: Test A postemergence; details: Setaria faberi, post-emergence, 240 h; for pest or weed control at 125 g/ha: 125 g ai/ha, visual injury vs untreated controls after approx. 10 d, 0 = no effect, 100 = complete control, read-out: Foxtail, Giant plant response rating (0 to 100 scale); for pest or weed control at 500 g/ha: 500 g ai/ha
# Method in brief: as §1
# [5] = test system: pigweed (Amaranthus retroflexus); assay: Test A postemergence; details: Amaranthus retroflexus, post-emergence, 240 h; for pest or weed control at 125 g/ha: 125 g ai/ha, visual injury vs untreated controls after approx. 10 d, 0 = no effect, 100 = complete control, read-out: Pigweed plant response rating (0 to 100 scale); for pest or weed control at 500 g/ha: 500 g ai/ha
# Method in brief: as §1
# [6] = test system: ragweed (common ragweed, Ambrosia elatior); assay: Test A postemergence; details: Ambrosia artemisiifolia, post-emergence, 240 h; for pest or weed control at 125 g/ha: 125 g ai/ha, visual injury vs untreated controls after approx. 10 d, 0 = no effect, 100 = complete control, read-out: Ragweed plant response rating (0 to 100 scale); for pest or weed control at 500 g/ha: 500 g ai/ha
# Method in brief: as §1
# [7] = test system: ryegrass, Italian (Italian ryegrass, Lolium multiflorum); assay: Test A postemergence; details: Lolium multiflorum, post-emergence, 240 h; for pest or weed control at 125 g/ha: 125 g ai/ha, visual injury vs untreated controls after approx. 10 d, 0 = no effect, 100 = complete control, read-out: Ryegrass, Italian plant response rating (0 to 100 scale); for pest or weed control at 500 g/ha: 500 g ai/ha
# Method in brief: as §1
# [8] = test system: wheat (Triticum aestivum); assay: Test A postemergence; details: Triticum aestivum, post-emergence, 240 h; for plant injury at 125 g/ha: 125 g ai/ha, postemergence, visual injury vs untreated controls after approx. 10 d, 0 = no effect, 100 = complete control, read-out: Wheat plant response rating (0 to 100 scale); for plant injury at 500 g/ha: Postemergence, 500 g ai/ha, visual injury, 0 to 100 scale (0 no effect, 100 complete control), approx. 10 d, read-out: Plant response rating, Wheat
# Method in brief: as §1
# [9] = test system: barnyardgrass (Echinochloa crus-galli); assay: Test B flooded paddy test; details: Echinochloa crus-galli, 250 g ai/ha, Flood; 0 to 100 scale where 0 is no effect and 100 is complete control; read-out: Barnyardgrass plant response rating
# Method in brief: (§2)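 Rating scale 0–100 (visual, vs untreated controls) after a 13–15 d greenhouse period; application to the flood layer, 3 cm above soil and maintained; plants at 2-leaf stage when treated.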
# [10] = test system: ducksalad (Heteranthera limosa); assay: Test B flooded paddy test; details: Heteranthera limosa, 250 g ai/ha, Flood; 0 to 100 scale where 0 is no effect and 100 is complete control; read-out: Ducksalad plant response rating
# Method in brief: as §2
# rice (Oryra sativa) = assay: Test B flooded paddy test; details: Oryza sativa, 250 g ai/ha, Flood; 0 to 100 scale where 0 is no effect and 100 is complete control; read-out: Rice plant response rating
# Method in brief: as §2
# [11] = test system: sedge, umbrella (small-flower umbrella sedge, Cyperus difformis); assay: Test B flooded paddy test; details: Cyperus difformis, 250 g ai/ha, Flood; 0 to 100 scale where 0 is no effect and 100 is complete control; read-out: Sedge, Umbrella plant response rating
# Method in brief: as §2
# [12] = Postemergence, visual injury, 0 to 100 scale (0 no effect, 100 complete control), approx. 10 d, read-out: Plant response rating, Galium
# [13] = Postemergence, visual injury, 0 to 100 scale (0 no effect, 100 complete control), approx. 10 d, read-out: Plant response rating, Kochia
# [14] = Postemergence, visual injury, 0 to 100 scale (0 no effect, 100 complete control), approx. 10 d, read-out: Plant response rating, Barnyardgrass
# [15] = Postemergence, visual injury, 0 to 100 scale (0 no effect, 100 complete control), approx. 10 d, read-out: Plant response rating, Blackgrass
# [16] = Postemergence, visual injury, 0 to 100 scale (0 no effect, 100 complete control), approx. 10 d, read-out: Plant response rating, Foxtail, Giant
# [17] = Postemergence, visual injury, 0 to 100 scale (0 no effect, 100 complete control), approx. 10 d, read-out: Plant response rating, Pigweed
# [18] = Postemergence, visual injury, 0 to 100 scale (0 no effect, 100 complete control), approx. 10 d, read-out: Plant response rating, Ragweed
# [19] = Postemergence, visual injury, 0 to 100 scale (0 no effect, 100 complete control), approx. 10 d, read-out: Plant response rating, Ryegrass, Italian
Structure (SMILES),pest or weed control at 125 g/ha ([1]; postemergence) [%],pest or weed control at 125 g/ha (Kochia (Kochia scoparia); postemergence) [%],pest or weed control at 125 g/ha ([2]; postemergence) [%],pest or weed control at 125 g/ha ([3]; postemergence) [%],plant injury at 125 g/ha (corn (Zea mays); postemergence) [%],pest or weed control at 125 g/ha ([4]; postemergence) [%],pest or weed control at 125 g/ha ([5]; postemergence) [%],pest or weed control at 125 g/ha ([6]; postemergence) [%],pest or weed control at 125 g/ha ([7]; postemergence) [%],plant injury at 125 g/ha [8] [%],pest or weed control at 250 g/ha [9] [%],pest or weed control at 250 g/ha [10] [%],pest or weed control at 250 g/ha (rice (Oryra sativa)) [%],pest or weed control at 250 g/ha [11] [%],"pest or weed control at 500 g/ha [1, 12] [%]",pest or weed control at 500 g/ha (Kochia (Kochia scoparia); [13]) [%],"pest or weed control at 500 g/ha [2, 14] [%]","pest or weed control at 500 g/ha [3, 15] [%]","Corn plant response rating (crop injury, 0 = no effect, 100 = complete kill) at 500 g/ha (corn (Zea mays); 500 g ai/ha) [%]","pest or weed control at 500 g/ha [4, 16] [%]",also measured
Cc1cc([C@H]2CNC(=O)[C@@H]2C(=O)Nc2ccccc2C(F)(F)F)ccc1Cl [Compound 1245],30,0,40,30,0,20,0,0,0,0,0,90,0,0,,,,,,,"pest or weed control at 500 g/ha ([1]; postemergence, 0 to 100 scale, 0 is no effect, 100 is complete control, read-out: Galium plant response rating): 50%; pest or weed control at 500 g/ha (Kochia (Kochia scoparia); postemergence, 0 to 100 scale, 0 is no effect, 100 is complete control, read-out: Kochia plant response rating): 40%; pest or weed control at 500 g/ha ([2]; postemergence, 0 to 100 scale, 0 is no effect, 100 is complete control, read-out: Barnyardgrass plant response rating): 90%; pest or weed control at 500 g/ha ([3]; postemergence, 0 to 100 scale, 0 is no effect, 100 is complete control, read-out: Blackgrass plant response rating): 60%; plant injury at 500 g/ha (corn (Zea mays); 500 g ai/ha, postemergence, 0 to 100 scale, 0 is no effect, 100 is complete control, read-out: Corn plant response rating): 0%; pest or weed control at 500 g/ha ([4]; postemergence, 0 to 100 scale, 0 is no effect, 100 is complete control, read-out: Foxtail, Giant plant response rating): 60%; pest or weed control at 500 g/ha ([5]; postemergence, 0 to 100 scale, 0 is no effect, 100 is complete control, read-out: Pigweed plant response rating): 0%; pest or weed control at 500 g/ha ([6]; postemergence, 0 to 100 scale, 0 is no effect, 100 is complete control, read-out: Ragweed plant response rating): 50%; pest or weed control at 500 g/ha ([7]; postemergence, 0 to 100 scale, 0 is no effect, 100 is complete control, read-out: Ryegrass, Italian plant response rating): 0%"
Cc1ccc([C@H]2CNC(=O)[C@@H]2C(=O)Nc2c(F)cccc2F)cc1C [Compound 1247],0,0,40,0,0,0,0,0,0,0,20,55,0,0,20,0,70,0,0,30,"pest or weed control at 500 g/ha [5, 17]: 0%; pest or weed control at 500 g/ha [6, 18]: 0%; pest or weed control at 500 g/ha [7, 19]: 0%; plant injury at 500 g/ha [8]: 0%"
CSc1ccccc1NC(=O)[C@H]1C(=O)N(C)C[C@@H]1c1cccc(C(F)(F)F)c1 [Compound 1249],50,40,100,40,70,80,30,0,30,50,60,100,0,0,50,70,100,50,90,80,"pest or weed control at 500 g/ha [5, 17]: 80%; pest or weed control at 500 g/ha [6, 18]: 60%; pest or weed control at 500 g/ha [7, 19]: 70%; plant injury at 500 g/ha [8]: 70%"
CSc1ccccc1NC(=O)[C@H]1C(=O)N(C)C[C@@H]1c1ccc2c(c1)OC(F)(F)O2 [Compound 1251],50,50,80,0,20,70,70,0,20,30,0,90,0,0,50,70,100,40,80,80,"pest or weed control at 500 g/ha [5, 17]: 80%; pest or weed control at 500 g/ha [6, 18]: 50%; pest or weed control at 500 g/ha [7, 19]: 40%; plant injury at 500 g/ha [8]: 60%"
